Test results from US11174291B2, “Silstatin compounds” (Arizona Board of Regents on behalf of Arizona State …, priority 2015, dated 2021).

How the values were obtained:
[1] = amide bond; 36-membered ring; 2 steps
MCF-7 = test: NCI sulforhodamine B growth inhibition, breast cancer cells; assay type: cell-based, human; settings: MCF-7 breast, 48 h
Description: (§1) Inhibition of human cancer cell growth was assessed using the National Cancer Institute's standard sulforhodamine B assay as previously described.^19In summary, cells in a 5% fetal bovine serum/RPMI1640 medium were inoculated in 96-well plates and incubated for 24 hrs. Next, serial dilutions of the compounds were added. After 48 h, the plates were fixed with trichloroacetic acid, stained with sulforhodamine B, and read with an automated microplate reader. A growth inhibition of 50% (GI50 or the drug concentration causing a 50% reduction in the net protein increase) was calcd from optical density data with Immunosoft software. Normal cells were treated in identical conditions. Normal human prostate CRL-2221 (PZ—HPV-7) was grown in MEM 10% FBS and normal human breast MCF-10A in MEGM kit.

BXPC-3 = test: NCI sulforhodamine B growth inhibition, pancreas cancer cells; assay type: cell-based, human; settings: BXPC3 pancreas, 48 h
Description: as §1

SF268 = test: NCI sulforhodamine B growth inhibition, CNS cancer cells; assay type: cell-based, human; settings: 48 h
Description: as §1

DU-145 = test: NCI sulforhodamine B growth inhibition, prostate cancer cells; assay type: cell-based, human; settings: DU145 prostate, 48 h
Description: as §1

[2] = test system: mini panel of cancer cell lines; test: Growth inhibition across the mini panel of cancer cell lines; assay type: cell-based, human; settings: for Cancer cell growth inhibition, assessment in words: mini panel of cancer cell lines (Table 1)
Description: as §1
The growth inhibition property of the silstatins and some intermediates were evaluated against a mini panel of cancer cell lines (Table 1).

KM20L2 = test: NCI sulforhodamine B growth inhibition, colon cancer cells; assay type: cell-based, human; settings: 48 h
Description: as §1

NCI-H460 = test: NCI sulforhodamine B growth inhibition, lung cancer cells; assay type: cell-based, human; settings: 48 h
Description: as §1

CRL-2221 (PZ—HPV-7) = test: Sulforhodamine B growth inhibition, normal prostate cells; assay type: cell-based, human; settings: for Growth inhibition of human normal cell lines GI50: CRL-2221 normal prostate
Description: as §1

MCF-10A = test: Sulforhodamine B growth inhibition, normal breast cells; assay type: cell-based, human; settings: for Growth inhibition of human normal cell lines GI50: MCF-10A normal breast
Description: as §1

Cyclo-{Tyr(tBu)-D-Hcha-D-Val-Lac-[Val-D-Hcha-D-Val-Lac]2}
ring closure, isolated yield [1]: 34%

Cyclo-{Tyr(tBu)-D-Hica-D-Val-Lac-[Val-D-Hica-D-Val-Lac]2}
ring closure, isolated yield [1]: 11%

Cyclo-[Val-D-Hcha-D-Val-Lac]3
ring closure, isolated yield [1]: 23%

Cyclo-{Tyr(tBu)-D-Hcha-D-Val-Lac-[Val-D-Hica-D-Val-Lac]2}
ring closure, isolated yield [1]: 22%

Cyclo-{Thr(tBu)-D-Hcha-D-Val-Lac-[Val-D-Hcha-D-Val-Lac]2}
ring closure, isolated yield [1]: 29%

Cyclo-[Val-D-Hica-D-Val-Lac]3
ring closure, isolated yield [1]: 28%

Cyclo-{Thr(tBu)-D-Hcha-D-Val-Lac-[Val-D-Hica-D-Val-Lac]2}
ring closure, isolated yield [1]: 48%

Cyclo-{Thr(tBu)-D-Hica-D-Val-Lac-[Val-D-Hica-D-Val-Lac]2}
ring closure, isolated yield [1]: 33%

CC(C)C[C@H]1OC(=O)[C@H](C(C)C)NC(=O)[C@H](C)OC(=O)[C@@H](C(C)C)NC(=O)[C@@H](CC(C)C)OC(=O)[C@H]([C@@H](C)O)NC(=O)[C@H](C)OC(=O)[C@@H](C(C)C)NC(=O)[C@@H](CC(C)C)OC(=O)[C@H](C(C)C)NC(=O)[C@H](C)OC(=O)[C@@H](C(C)C)NC1=O [Silstatin 2 (8a), Cyclo-{Thr-D-Hica-D-Val-Lac-[Val-D-Hica-D-Val-Lac]2}]
Growth inhibition of human cancer cell lines GI50 (MCF-7): 2.2 ng/mL | Growth inhibition of human cancer cell lines GI50 (BXPC-3): 4 ng/mL | Growth inhibition of human cancer cell lines GI50 (SF268): 3.1 ng/mL | Growth inhibition of human cancer cell lines GI50 (DU-145): 6 ng/mL | Cancer cell growth inhibition, assessment in words [2]: somewhat decreased activity | Growth inhibition of human cancer cell lines GI50 (KM20L2): 3.3 ng/mL | Growth inhibition of human cancer cell lines GI50 (NCI-H460): 3.2 ng/mL

CC(C)C[C@H]1OC(=O)[C@H](C(C)C)NC(=O)[C@H](C)OC(=O)[C@@H](C(C)C)NC(=O)[C@@H](CC(C)C)OC(=O)[C@H](C(C)C)NC(=O)[C@H](C)OC(=O)[C@@H](C(C)C)NC(=O)[C@@H](CC2CCCCC2)OC(=O)[C@H](Cc2ccc(O)cc2)NC(=O)[C@H](C)OC(=O)[C@@H](C(C)C)NC1=O [Silstatin 8 (18b), Cyclo-{Tyr-D-Hcha-D-Val-Lac-[Val-D-Hica-D-Val-Lac]2}]
Growth inhibition of human cancer cell lines GI50 (MCF-7): 1.1 ng/mL | Growth inhibition of human cancer cell lines GI50 (BXPC-3): 6 ng/mL | Growth inhibition of human cancer cell lines GI50 (SF268): 3 ng/mL | Growth inhibition of human cancer cell lines GI50 (DU-145): 5.4 ng/mL | Cancer cell growth inhibition, assessment in words [2]: rescuing the activity | Growth inhibition of human cancer cell lines GI50 (KM20L2): 2.1 ng/mL | Growth inhibition of human cancer cell lines GI50 (NCI-H460): 4 ng/mL

CC(C)C[C@H]1OC(=O)[C@H](C(C)C)NC(=O)[C@H](C)OC(=O)[C@@H](C(C)C)NC(=O)[C@@H](CC2CCCCC2)OC(=O)[C@H]([C@@H](C)OC(=O)CCCN(C)C(=O)OCc2ccc(O[C@@H]3O[C@H](C(=O)O)[C@@H](O)[C@H](O)[C@H]3O)c([N+](=O)[O-])c2)NC(=O)[C@H](C)OC(=O)[C@@H](C(C)C)NC(=O)[C@@H](CC(C)C)OC(=O)[C@H](C(C)C)NC(=O)[C@H](C)OC(=O)[C@@H](C(C)C)NC1=O [Silstatin 28]
Growth inhibition of human cancer cell lines GI50 (MCF-7): 31 ng/mL | Decrease of normal cell growth inhibition activity with respect to the parent silstatin 7 (18a) (CRL-2221 (PZ—HPV-7); CRL-2221): 12.5 times | Growth inhibition of human normal cell lines GI50 (CRL-2221 (PZ—HPV-7)): 50 ng/mL | Growth inhibition of human cancer cell lines GI50 (BXPC-3): 200 ng/mL | Decrease of normal cell growth inhibition activity with respect to the parent silstatin 7 (18a) (MCF-10A; MCF-10A): 62.5 times | Growth inhibition of human normal cell lines GI50 (MCF-10A): 250 ng/mL | Growth inhibition of human cancer cell lines GI50 (SF268): 50 ng/mL | Growth inhibition of human cancer cell lines GI50 (DU-145): 130 ng/mL | Decrease of cancer cell growth inhibition activity with respect to the parent silstatin 7 ([2]; across the six cancer cell lines of Table 1): 16-52 times | Growth inhibition of human cancer cell lines GI50 (KM20L2): 40 ng/mL | Growth inhibition of human cancer cell lines GI50 (NCI-H460): 70 ng/mL

CC(C)[C@@H]1NC(=O)[C@H](C)OC(=O)[C@@H](C(C)C)NC(=O)[C@@H](CC2CCCCC2)OC(=O)[C@H]([C@@H](C)O)NC(=O)[C@H](C)OC(=O)[C@@H](C(C)C)NC(=O)[C@@H](CC2CCCCC2)OC(=O)[C@H](C(C)C)NC(=O)[C@H](C)OC(=O)[C@@H](C(C)C)NC(=O)[C@@H](CC2CCCCC2)OC1=O [Silstatin 5 (15a), Cyclo-{Thr-D-Hcha-D-Val-Lac-[Val-D-Hcha-D-Val-Lac]2}]
Growth inhibition of human cancer cell lines GI50 (MCF-7): 3.1 ng/mL | Growth inhibition of human cancer cell lines GI50 (BXPC-3): 30 ng/mL | Growth inhibition of human cancer cell lines GI50 (SF268): 4.4 ng/mL | Growth inhibition of human cancer cell lines GI50 (DU-145): 5 ng/mL | Cancer cell growth inhibition, assessment in words [2]: very high inhibitory activity | Growth inhibition of human cancer cell lines GI50 (KM20L2): 4.4 ng/mL | Growth inhibition of human cancer cell lines GI50 (NCI-H460): 21 ng/mL

CC(C)C[C@H]1OC(=O)[C@H](C(C)C)NC(=O)[C@H](C)OC(=O)[C@@H](C(C)C)NC(=O)[C@@H](CC2CCCCC2)OC(=O)[C@H]([C@@H](C)O)NC(=O)[C@H](C)OC(=O)[C@@H](C(C)C)NC(=O)[C@@H](CC(C)C)OC(=O)[C@H](C(C)C)NC(=O)[C@H](C)OC(=O)[C@@H](C(C)C)NC1=O [Silstatin 7 (18a), Cyclo-{Thr-D-Hcha-D-Val-Lac-[Val-D-Hica-D-Val-Lac]2}]
Growth inhibition of human cancer cell lines GI50 (MCF-7): 1.4 ng/mL | Growth inhibition of human normal cell lines GI50 (CRL-2221 (PZ—HPV-7)): 4 ng/mL | Growth inhibition of human cancer cell lines GI50 (BXPC-3): 3.8 ng/mL | Growth inhibition of human normal cell lines GI50 (MCF-10A): 4 ng/mL | Growth inhibition of human cancer cell lines GI50 (SF268): 3.1 ng/mL | Growth inhibition of human cancer cell lines GI50 (DU-145): 3 ng/mL | Cancer cell growth inhibition, assessment in words [2]: rescuing the activity | Growth inhibition of human cancer cell lines GI50 (KM20L2): 1.5 ng/mL | Growth inhibition of human cancer cell lines GI50 (NCI-H460): 3.2 ng/mL
